Results reported in patent publication US20140171319A1, “Aqueous Composition Comprising a Pesticide and a Base Selected from an Alkali Salt of Hydrogencarbonate” (BASF SE, priority 2011, published 2014).

Tests used:
pH of tank mix = assay type: physicochemical
Protocol: The liquid aqueous composition may have a pH value of at least pH 4.0, preferably of at least 6.0, better of at least 7.0, more preferably of at least 7.5, especially preferred of at least 8.0 and in particular of at least 8.5. The liquid aqueous composition may have a pH of up to 13.0, preferably of up to 11.0 and in particular of up to 9.0. The pH value is usually determined at 20° C.

[1] = Volatility: loss of dicamba from aqueous tank mix on petri dish; assay type: physicochemical; conditions: 70° C., 24 h, atmospheric pressure
Protocol: The volatility was determined by analyzing the loss of material by HLPL at 70° C. after 24 h at atmospheric pressure. A sample of the aqueous tank mix (300 l/ha) was placed on the petri dish with a defined area (corresponding to a desired field application rate, such as 500 g/ha pesticide).
The application rate was 500 g/ha dicamba (free acid), 1000 g/ha potassium glyphosate, 300 g/ha Genamin® T050 (“Ad2”, 300 g/ha Preference® (“Ad3”) and optionally 250, 500 or 1000 g/ha K2CO3. Deionised water (hardness <1° dH) was used to prepare the samples. Dicamba BAPMA refers to the bis(3-aminopropyl)methylamine salt of dicamba.

Compound | pH of tank mix (pH of tank mix; Example 7 tank mix, 500 g/ha dicamba (free acid), deionised water (hardness <1° dH)) | Loss of dicamba, Loss (wt %) ([1]; 500 g/ha dicamba (free acid), 1000 g/ha potassium glyphosate where Gly-K, deionised water) | pH of tank mix (pH of tank mix; Example 6 tank mix, application rate 500 g/ha dicamba, 300 l/ha) | Loss of dicamba, Loss (wt %) ([1]; application rate 500 g/ha dicamba, tank mix 300 l/ha)
CN(CCCN)CCCN.COc1c(Cl)ccc(Cl)c1C(=O)O [Dicamba BAPMA, bis(3-aminopropyl)methylamine salt of dicamba] | 6.3 | <1 wt % | – | –
COc1c(Cl)ccc(Cl)c1C(=O)O [Dicamba free acid, dicamba] | – | – | 3.0 | 80 wt %
